Laboratory results from paper PMC5218480 (PLoS ONE, 2017).

Test system: MV-4-11 cells
Assay: Gene expression microarray analysis (Affymetrix PrimeView) and GSEA
Type: cell-based, human
Set-up: RFU PODN (11730768_x_at) / Fold change /veh PODN (11730768_x_at) / RFU LINC00158 (11744669_a_at) / Fold change /veh LINC00158 (11744669_a_at) / RFU DUSP10 (11751237_a_at) / Fold change /veh DUSP10 (11751237_a_at) / RFU ID3 (11757404_x_at) / Fold change /veh ID3 (11757404_x_at) / RFU PLEKHG5 (11737974_s_at) / Fold change /veh PLEKHG5 (11737974_s_at) / RFU LRRC4B (11730491_at) / Fold change /veh LRRC4B (11730491_at) / RFU GIMAP4 (11747438_a_at) / Fold change /veh GIMAP4 (11747438_a_at) / RFU KRT8 (11758183_x_at) / Fold change /veh KRT8 (11758183_x_at) / RFU CNN1 (11734310_a_at) / Fold change /veh CNN1 (11734310_a_at) / RFU VPS37D (11726825_at) / Fold change /veh VPS37D (11726825_at) / RFU C10orf10 (11716522_x_at) / Fold change /veh C10orf10 (11716522_x_at) / RFU KIR2DL2 /// KIR2DL4 /// KIR2DL5A /// KIR2DL5B /// KIR2DS1 /// KIR2DS2 /// KIR2DS3 /// KIR2DS4 /// KIR3DL3 /// KIR3DL3 /// KIR3DS1 (11738374_at) / Fold change /veh KIR2DL2 /// KIR2DL4 /// KIR2DL5A /// KIR2DL5B /// KIR2DS1 /// KIR2DS2 /// KIR2DS3 /// KIR2DS4 /// KIR3DL3 /// KIR3DL3 /// KIR3DS1 (11738374_at) / RFU C1QL1 (11718748_at) / Fold change /veh C1QL1 (11718748_at) / RFU TMPRSS4 (11747572_a_at) / Fold change /veh TMPRSS4 (11747572_a_at) / RFU HAMP (11756126_x_at) / Fold change /veh HAMP (11756126_x_at) / RFU RNFT2 (11725882_a_at) / Fold change /veh RNFT2 (11725882_a_at) / RFU NR4A2 (11747474_a_at) / Fold change /veh NR4A2 (11747474_a_at) / RFU ABCC12 (11746883_a_at) / Fold change /veh ABCC12 (11746883_a_at) / RFU TMEM136 (11760407_x_at) / Fold change /veh TMEM136 (11760407_x_at) / RFU CLDN22 /// WWC2 (11732394_at) / Fold change /veh CLDN22 /// WWC2 (11732394_at) / RFU HLA-DPB1 (11760878_x_at) / Fold change /veh HLA-DPB1 (11760878_x_at) / RFU SPINT1 (11716480_a_at) / Fold change /veh SPINT1 (11716480_a_at) / RFU GAP43 (11754022_s_at) / Fold change /veh GAP43 (11754022_s_at) / RFU A4GNT (11735810_at) / Fold change /veh A4GNT (11735810_at) / RFU PRB3 (11715151_x_at) / Fold change /veh PRB3 (11715151_x_at) / RFU TUBB4B (11761932_at) / Fold change /veh TUBB4B (11761932_at) / RFU CAPN14 (11732068_a_at) / Fold change /veh CAPN14 (11732068_a_at) / RFU TMCC2 (11721928_a_at) / Fold change /veh TMCC2 (11721928_a_at) / RFU IRGQ (11745062_a_at) / Fold change /veh IRGQ (11745062_a_at) / RFU FAM174B (11720279_a_at) / Fold change /veh FAM174B (11720279_a_at) / RFU TMPRSS4 (11748680_a_at) / Fold change /veh TMPRSS4 (11748680_a_at) / RFU FAM212B (11763350_a_at) / Fold change /veh FAM212B (11763350_a_at) / RFU PLEKHG5 (11743358_a_at) / Fold change /veh PLEKHG5 (11743358_a_at) / RFU ZSCAN30 (11745921_a_at) / Fold change /veh ZSCAN30 (11745921_a_at) / RFU CMKLR1 (11741424_a_at) / Fold change /veh CMKLR1 (11741424_a_at) / RFU LOC101060620 /// MAPK8IP1 (11723275_at) / Fold change /veh LOC101060620 /// MAPK8IP1 (11723275_at) / RFU SPTSSB (11747773_x_at) / Fold change /veh SPTSSB (11747773_x_at) / RFU PRSS12 (11739890_at) / Fold change /veh PRSS12 (11739890_at) / RFU BIN1 (11741810_x_at) / Fold change /veh BIN1 (11741810_x_at) / RFU WNT11 (11732464_a_at) / Fold change /veh WNT11 (11732464_a_at) / RFU C10orf10 (11716521_a_at) / Fold change /veh C10orf10 (11716521_a_at) / RFU C5orf56 (11738089_at) / Fold change /veh C5orf56 (11738089_at) / RFU CYB561 (11721691_x_at) / Fold change /veh CYB561 (11721691_x_at) / RFU ANKRD19P (11752326_a_at) / Fold change /veh ANKRD19P (11752326_a_at) / RFU OR2T12 /// OR2T33 /// OR2T8 (11738714_s_at) / Fold change /veh OR2T12 /// OR2T33 /// OR2T8 (11738714_s_at) / RFU VCAN (11748164_a_at) / Fold change /veh VCAN (11748164_a_at) / RFU JSRP1 (11732532_at) / Fold change /veh JSRP1 (11732532_at) / RFU KRTAP10-11 (11738290_x_at) / Fold change /veh KRTAP10-11 (11738290_x_at) / RFU MYO3A (11730013_a_at) / Fold change /veh MYO3A (11730013_a_at) / RFU EBF3 (11725865_a_at) / Fold change /veh EBF3 (11725865_a_at) / RFU CAMK2N1 (11719241_x_at) / Fold change /veh CAMK2N1 (11719241_x_at) / RFU C5orf56 (11738088_a_at) / Fold change /veh C5orf56 (11738088_a_at) / RFU OLFML3 (11715873_a_at) / Fold change /veh OLFML3 (11715873_a_at) / RFU LOC100653217 /// NTM (11731650_a_at) / Fold change /veh LOC100653217 /// NTM (11731650_a_at) / RFU MAPK11 (11762145_a_at) / Fold change /veh MAPK11 (11762145_a_at) / RFU FIZ1 (11724087_x_at) / Fold change /veh FIZ1 (11724087_x_at) / RFU OASL (11726364_x_at) / Fold change /veh OASL (11726364_x_at) / RFU SOX15 (11748057_x_at) / Fold change /veh SOX15 (11748057_x_at) / RFU CD79A (11719716_a_at) / Fold change /veh CD79A (11719716_a_at) / RFU HIST1H1D (11736915_at) / Fold change /veh HIST1H1D (11736915_at) / RFU CASKIN2 (11723855_a_at) / Fold change /veh CASKIN2 (11723855_a_at) / RFU LOC730098 (11760151_x_at) / Fold change /veh LOC730098 (11760151_x_at) / RFU OR4N2 (11742367_at) / Fold change /veh OR4N2 (11742367_at) / RFU PRRT2 (11749266_a_at) / Fold change /veh PRRT2 (11749266_a_at) / RFU SNX32 (11753110_a_at) / Fold change /veh SNX32 (11753110_a_at) / RFU CDHR5 (11726645_a_at) / Fold change /veh CDHR5 (11726645_a_at) / RFU RCAN1 (11760418_a_at) / Fold change /veh RCAN1 (11760418_a_at) / RFU FAM167A (11723789_a_at) / Fold change /veh FAM167A (11723789_a_at) / RFU FAM26E (11764081_at) / Fold change /veh FAM26E (11764081_at) / RFU ISYNA1 (11749810_s_at) / Fold change /veh ISYNA1 (11749810_s_at) / RFU ACY1 (11761880_at) / Fold change /veh ACY1 (11761880_at) / RFU 11764098_at / Fold change /veh 11764098_at / RFU SAMD14 (11745864_x_at) / Fold change /veh SAMD14 (11745864_x_at) / RFU NPB (11741838_a_at) / Fold change /veh NPB (11741838_a_at) / RFU TMPRSS6 (11731388_a_at) / Fold change /veh TMPRSS6 (11731388_a_at) / RFU KRTAP10-2 (11738614_at) / Fold change /veh KRTAP10-2 (11738614_at) / RFU ARHGAP8 /// PRR5-ARHGAP8 (11727945_x_at) / Fold change /veh ARHGAP8 /// PRR5-ARHGAP8 (11727945_x_at) / RFU KRTAP5-7 /// NADSYN1 (11734609_at) / Fold change /veh KRTAP5-7 /// NADSYN1 (11734609_at) / RFU RASL12 (11751679_a_at) / Fold change /veh RASL12 (11751679_a_at) / RFU CDKN2B (11736163_a_at) / Fold change /veh CDKN2B (11736163_a_at) / RFU PRF1 (11729649_at) / Fold change /veh PRF1 (11729649_at) / RFU, ZNF638 /// ZNF638-IT1 / Fold change vs veh, ZNF638 /// ZNF638-IT1 / RFU, PANK3 / Fold change vs veh, PANK3 / RFU, SH3YL1 / Fold change vs veh, SH3YL1 / RFU, ZEB2 / Fold change vs veh, ZEB2 / RFU, NRIP1 / Fold change vs veh, NRIP1 / RFU, PTTG1IP / Fold change vs veh, PTTG1IP / RFU, CAPN2 / Fold change vs veh, CAPN2 / RFU, MED14 / Fold change vs veh, MED14 / RFU, SNORA58 / Fold change vs veh, SNORA58 / RFU, C1orf63 / Fold change vs veh, C1orf63 / RFU, LRRFIP1 / Fold change vs veh, LRRFIP1 / RFU, NDUFAF7 / Fold change vs veh, NDUFAF7 / RFU, SLC12A2 / Fold change vs veh, SLC12A2 / RFU, IBTK / Fold change vs veh, IBTK / RFU, ESF1 / Fold change vs veh, ESF1 / Fold change vs veh, TMEM50B / RFU, TAOK1 / Fold change vs veh, TAOK1 / RFU, ACBD3 / Fold change vs veh, ACBD3 / RFU, TMA16 / Fold change vs veh, TMA16 / RFU, RWDD3 / Fold change vs veh, RWDD3 / RFU, BCAT1 / Fold change vs veh, BCAT1 / RFU, EDEM3 / Fold change vs veh, EDEM3 / RFU, TMEM33 / Fold change vs veh, TMEM33 / RFU, WDR75 / Fold change vs veh, WDR75 / RFU, AHCTF1 / Fold change vs veh, AHCTF1 / RFU, TFRC / Fold change vs veh, TFRC / RFU, ZDHHC17 / Fold change vs veh, ZDHHC17 / RFU, NOM1 / Fold change vs veh, NOM1 / RFU, ARL8B / Fold change vs veh, ARL8B / RFU, ZBTB11 / Fold change vs veh, ZBTB11 / RFU, TAMM41 / Fold change vs veh, TAMM41 / RFU, KIAA1704 /// LOC100996395 / Fold change vs veh, KIAA1704 /// LOC100996395 / RFU, ING1 / Fold change vs veh, ING1 / RFU, TRMT61B / Fold change vs veh, TRMT61B / RFU, FUBP3 / Fold change vs veh, FUBP3 / RFU, TP53 / Fold change vs veh, TP53 / RFU, TNKS2 / Fold change vs veh, TNKS2 / RFU, ZFP14 / Fold change vs veh, ZFP14 / RFU, ACTR2 / Fold change vs veh, ACTR2 / RFU, PPP3R1 / Fold change vs veh, PPP3R1 / RFU, PIK3R1 / Fold change vs veh, PIK3R1 / RFU, HNRNPA1 / Fold change vs veh, HNRNPA1 / RFU, RNF170 / Fold change vs veh, RNF170 / RFU, ZNF28 / Fold change vs veh, ZNF28 / RFU, RNGTT / Fold change vs veh, RNGTT / RFU, OGT / Fold change vs veh, OGT / RFU, BRD1 / Fold change vs veh, BRD1 / RFU, MARS / Fold change vs veh, MARS / RFU, ZNF655 / Fold change vs veh, ZNF655 / RFU, FAHD1 / Fold change vs veh, FAHD1 / RFU, BDP1 / Fold change vs veh, BDP1 / RFU, LRRCC1 / Fold change vs veh, LRRCC1 / RFU, ARID1A / Fold change vs veh, ARID1A / RFU, ZNF146 / Fold change vs veh, ZNF146 / RFU, ZNF330 / Fold change vs veh, ZNF330 / RFU, GPN3 / Fold change vs veh, GPN3 / RFU, C9orf123 / Fold change vs veh, C9orf123 / RFU, N4BP2L2 / Fold change vs veh, N4BP2L2 / RFU, ARFIP1 / Fold change vs veh, ARFIP1 / RFU, FAM179B / Fold change vs veh, FAM179B / RFU, BCL10 / Fold change vs veh, BCL10 / RFU, UHRF1BP1L / Fold change vs veh, UHRF1BP1L / RFU, BET1 / Fold change vs veh, BET1 / RFU, CNOT2 / Fold change vs veh, CNOT2 / RFU, ZNF268 / Fold change vs veh, ZNF268 / Fold change vs veh, ZNF507 / RFU, DGCR2 / Fold change vs veh, DGCR2 / RFU, WDSUB1 / Fold change vs veh, WDSUB1 / Fold change vs veh, HSP90B1 /// MIR3652 / RFU, ADSS / Fold change vs veh, ADSS / RFU, GK / Fold change vs veh, GK / RFU, ZNF148 / Fold change vs veh, ZNF148 / RFU, TAF9 / Fold change vs veh, TAF9 / RFU, SLC1A5 / Fold change vs veh, SLC1A5 / RFU, SLMO2 / Fold change vs veh, SLMO2 / RFU, ABCC4 / Fold change vs veh, ABCC4 / RFU, LOC101060439 /// RAP1B / Fold change vs veh, LOC101060439 /// RAP1B / RFU, RFX7 / Fold change vs veh, RFX7 / RFU, GTPBP10 / Fold change vs veh, GTPBP10 / RFU, CNEP1R1 / Fold change vs veh, CNEP1R1 / RFU, BIVM-ERCC5 /// ERCC5 / Fold change vs veh, BIVM-ERCC5 /// ERCC5 / RFU, ILF3 / Fold change vs veh, ILF3 / RFU 11762660_at / Fold change /veh 11762660_at / RFU VCAN (11757783_s_at) / Fold change /veh VCAN (11757783_s_at) / RFU DDX43 (11728927_at) / Fold change /veh DDX43 (11728927_at) / RFU KRT8 (11758188_x_at) / Fold change /veh KRT8 (11758188_x_at) / RFU NKD1 (11759106_at) / Fold change /veh NKD1 (11759106_at) / RFU SRD5A1 (11742802_a_at) / Fold change /veh SRD5A1 (11742802_a_at) / RFU TPSAB1 /// TPSB2 (11721975_s_at) / Fold change /veh TPSAB1 /// TPSB2 (11721975_s_at) / RFU GSTM3 (11746129_a_at) / Fold change /veh GSTM3 (11746129_a_at) / RFU IL23R (11737362_x_at) / Fold change /veh IL23R (11737362_x_at) / RFU TMEM51 (11727254_a_at) / Fold change /veh TMEM51 (11727254_a_at) / RFU PIWIL2 (11732686_x_at) / Fold change /veh PIWIL2 (11732686_x_at) / RFU ORM1 (11744905_x_at) / Fold change /veh ORM1 (11744905_x_at) / RFU CCDC152 (11743942_at) / Fold change /veh CCDC152 (11743942_at) / RFU ECM1 (11717891_a_at) / Fold change /veh ECM1 (11717891_a_at) / RFU IL23R (11748794_a_at) / Fold change /veh IL23R (11748794_a_at) / RFU TNFAIP8L3 (11732012_x_at) / Fold change /veh TNFAIP8L3 (11732012_x_at) / RFU MBOAT4 (11741988_at) / Fold change /veh MBOAT4 (11741988_at) / RFU 11764193_at / Fold change /veh 11764193_at / RFU TMEM53 (11763286_at) / Fold change /veh TMEM53 (11763286_at) / RFU MAGEB2 (11727129_at) / Fold change /veh MAGEB2 (11727129_at) / RFU TMEM200A (11744735_a_at) / Fold change /veh TMEM200A (11744735_a_at) / RFU CCDC152 (11751479_a_at) / Fold change /veh CCDC152 (11751479_a_at) / RFU FAM211A (11726209_a_at) / Fold change /veh FAM211A (11726209_a_at) / RFU RGS16 (11746705_a_at) / Fold change /veh RGS16 (11746705_a_at) / RFU VCAN (11755009_s_at) / Fold change /veh VCAN (11755009_s_at) / RFU RHOB (11743442_s_at) / Fold change /veh RHOB (11743442_s_at) / RFU RGS16 (11720943_a_at) / Fold change /veh RGS16 (11720943_a_at) / RFU RGS16 (11720944_at) / Fold change /veh RGS16 (11720944_at) / RFU, VPS4B / Fold change vs veh, VPS4B / RFU, CREB1 / Fold change vs veh, CREB1 / RFU, DNAJC13 / Fold change vs veh, DNAJC13 / RFU, GNAQ / Fold change vs veh, GNAQ / RFU, CDK5R1 / Fold change vs veh, CDK5R1 / RFU, ZRANB3 / Fold change vs veh, ZRANB3 / RFU, CUL4A / Fold change vs veh, CUL4A / RFU, CCNY / Fold change vs veh, CCNY / RFU, UFL1 / Fold change vs veh, UFL1 / RFU, COG3 / Fold change vs veh, COG3 / RFU, DIAPH2 / Fold change vs veh, DIAPH2 / RFU, SKA2 / Fold change vs veh, SKA2 / RFU, AFF3 / Fold change vs veh, AFF3 / RFU, LMF1 / Fold change vs veh, LMF1 / RFU, IPO11 / Fold change vs veh, IPO11 / RFU, DFFB / Fold change vs veh, DFFB / RFU, FOXP1 / Fold change vs veh, FOXP1 / RFU, CARD8 / Fold change vs veh, CARD8 / RFU, STRN3 / Fold change vs veh, STRN3 / RFU, ADK / Fold change vs veh, ADK / RFU, RASSF2 / Fold change vs veh, RASSF2 / RFU, WIPF1 / Fold change vs veh, WIPF1 / RFU, LARP1B / Fold change vs veh, LARP1B / RFU, RASA1 / Fold change vs veh, RASA1 / RFU, RB1 / Fold change vs veh, RB1 / RFU, PPFIA1 / Fold change vs veh, PPFIA1 / RFU, MAT2A / Fold change vs veh, MAT2A / RFU, CCT5 / Fold change vs veh, CCT5 / RFU, WDR92 / Fold change vs veh, WDR92 / RFU, CUX1 / Fold change vs veh, CUX1 / RFU, TTC7A / Fold change vs veh, TTC7A / RFU, TMEM135 / Fold change vs veh, TMEM135 / RFU, DEPTOR / Fold change vs veh, DEPTOR / RFU, CPM / Fold change vs veh, CPM / RFU, DNAJB6 / Fold change vs veh, DNAJB6 / RFU, CACNA2D3 / Fold change vs veh, CACNA2D3 / RFU, DTX4 / Fold change vs veh, DTX4 / RFU, TFCP2 / Fold change vs veh, TFCP2 / RFU, GMCL1 /// GMCL1P1 / Fold change vs veh, GMCL1 /// GMCL1P1 / RFU, AEBP2 / Fold change vs veh, AEBP2 / RFU, SNHG1 /// SNORD22 /// SNORD25 /// SNORD26 /// SNORD27 /// SNORD28 /// SNORD29 /// SNORD31 / Fold change vs veh, SNHG1 /// SNORD22 /// SNORD25 /// SNORD26 /// SNORD27 /// SNORD28 /// SNORD29 /// SNORD31 / Fold change (Aza/veh), C12orf56 (ProbeSet 11735607_a_at) / Fold change (ACY-1035/veh), C12orf56 (ProbeSet 11735607_a_at) / Fold change (Aza/veh), FGFR1OP (ProbeSet 11751329_s_at) / Fold change (ACY-1035/veh), FGFR1OP (ProbeSet 11751329_s_at) / Fold change (Aza/veh), VPS36 (ProbeSet 11739960_a_at) / Fold change (ACY-1035/veh), VPS36 (ProbeSet 11739960_a_at) / RFU SYPL1 (11715823_x_at) / Fold change /veh SYPL1 (11715823_x_at) / RFU IGFBP7 (11715501_s_at) / Fold change /veh IGFBP7 (11715501_s_at) / RFU REEP3 (11722064_at) / Fold change /veh REEP3 (11722064_at) / RFU IGLL1 (11728026_x_at) / Fold change /veh IGLL1 (11728026_x_at): dose or concentration left out as unconfirmed
Settings: MV-4-11 cells, 48 hours

## Nc1ccc(-c2cccs2)cc1NC(=O)c1ccc2c(c1)cc(C1CC1)n2CCN1CCOCC1 [ACY-1035]
  Fold change /veh IL23R (11737362_x_at): 1.14
